One assay concerns the target T1, CK1α (Homo sapiens, UniProt P48729+Q96SW2).
T1 construct: effects of the compounds of the present disclosure on the expression of target proteins in cells; endogenous in cells; host or cells: human PBMCs (Milecell Biotechnologies)
The assay can be described thus: Western blot, degradation of substrate protein in hPBMCs. The format is cell-based. To be noted: Western blot, 24 hours of compound treatment, compounds tested at 50 nM and 500 nM (concentration for the table not stated). For orientation: Immunoblotting shows a protein as a band on a membrane.

For a further assay, the target named is T2, IKZF1 (Homo sapiens, UniProt Q13422+Q96SW2).
T2 construct: effects of the compounds of the present disclosure on the expression of target proteins in cells; endogenous in cells; host or cells: human PBMCs (Milecell Biotechnologies)
T2 sequence (Q13422 whole entry): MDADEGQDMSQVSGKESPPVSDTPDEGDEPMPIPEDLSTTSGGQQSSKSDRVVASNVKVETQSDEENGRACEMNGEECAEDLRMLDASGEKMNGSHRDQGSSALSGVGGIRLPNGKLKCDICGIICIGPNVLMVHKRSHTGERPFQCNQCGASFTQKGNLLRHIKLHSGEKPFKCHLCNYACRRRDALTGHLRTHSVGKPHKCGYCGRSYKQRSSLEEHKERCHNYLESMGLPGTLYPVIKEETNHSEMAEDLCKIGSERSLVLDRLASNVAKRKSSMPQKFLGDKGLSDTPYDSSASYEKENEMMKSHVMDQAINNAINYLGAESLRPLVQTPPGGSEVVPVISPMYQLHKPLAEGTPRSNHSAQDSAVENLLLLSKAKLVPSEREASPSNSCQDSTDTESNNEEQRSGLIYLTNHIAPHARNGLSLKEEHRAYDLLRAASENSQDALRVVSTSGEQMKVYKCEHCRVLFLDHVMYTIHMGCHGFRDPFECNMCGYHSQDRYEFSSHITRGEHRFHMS
T2 sequence (Q96SW2 whole entry): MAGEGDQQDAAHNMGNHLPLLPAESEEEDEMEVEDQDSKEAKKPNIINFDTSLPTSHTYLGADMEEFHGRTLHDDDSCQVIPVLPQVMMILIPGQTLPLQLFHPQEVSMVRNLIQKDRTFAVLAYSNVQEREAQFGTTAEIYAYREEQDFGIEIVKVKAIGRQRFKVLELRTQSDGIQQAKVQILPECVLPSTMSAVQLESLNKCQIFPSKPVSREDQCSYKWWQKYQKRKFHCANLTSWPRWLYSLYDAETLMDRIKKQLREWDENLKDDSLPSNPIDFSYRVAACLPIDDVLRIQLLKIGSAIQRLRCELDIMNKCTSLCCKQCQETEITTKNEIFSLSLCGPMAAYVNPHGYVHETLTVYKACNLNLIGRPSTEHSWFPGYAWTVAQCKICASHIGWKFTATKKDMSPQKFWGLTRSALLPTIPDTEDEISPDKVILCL
T2 sequence (Q16531 whole entry partner): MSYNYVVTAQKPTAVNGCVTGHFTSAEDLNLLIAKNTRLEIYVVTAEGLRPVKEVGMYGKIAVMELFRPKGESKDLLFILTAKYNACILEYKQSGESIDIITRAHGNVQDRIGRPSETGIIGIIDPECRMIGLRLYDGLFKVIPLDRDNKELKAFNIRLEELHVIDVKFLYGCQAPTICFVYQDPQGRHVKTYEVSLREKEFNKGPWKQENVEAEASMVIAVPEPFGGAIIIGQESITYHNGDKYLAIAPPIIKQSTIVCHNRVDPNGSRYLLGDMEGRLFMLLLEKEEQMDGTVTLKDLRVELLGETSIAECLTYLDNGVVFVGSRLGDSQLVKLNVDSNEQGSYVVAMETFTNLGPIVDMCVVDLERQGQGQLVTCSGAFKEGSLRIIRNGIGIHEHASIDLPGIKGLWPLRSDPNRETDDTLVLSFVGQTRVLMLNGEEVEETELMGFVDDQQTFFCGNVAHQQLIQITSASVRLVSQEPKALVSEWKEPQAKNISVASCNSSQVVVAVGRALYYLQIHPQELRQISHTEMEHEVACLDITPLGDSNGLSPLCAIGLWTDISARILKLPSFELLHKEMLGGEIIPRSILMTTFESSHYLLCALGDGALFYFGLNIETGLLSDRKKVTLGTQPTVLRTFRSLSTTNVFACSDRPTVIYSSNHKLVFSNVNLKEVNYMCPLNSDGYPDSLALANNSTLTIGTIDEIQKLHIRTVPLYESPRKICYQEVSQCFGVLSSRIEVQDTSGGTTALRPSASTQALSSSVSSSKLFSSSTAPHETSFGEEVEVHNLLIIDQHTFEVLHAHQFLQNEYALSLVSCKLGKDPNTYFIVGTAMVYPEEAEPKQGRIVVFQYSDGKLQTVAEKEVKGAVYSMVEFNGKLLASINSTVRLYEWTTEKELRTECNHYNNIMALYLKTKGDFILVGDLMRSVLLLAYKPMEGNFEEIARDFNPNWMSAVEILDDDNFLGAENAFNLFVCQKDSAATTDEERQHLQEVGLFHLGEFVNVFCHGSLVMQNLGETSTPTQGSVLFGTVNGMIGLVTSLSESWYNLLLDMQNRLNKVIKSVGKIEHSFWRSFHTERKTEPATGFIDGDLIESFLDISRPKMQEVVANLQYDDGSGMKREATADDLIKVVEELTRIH
The assay is described as above. Particulars: Western blot, 24 hours of compound treatment, compounds tested at 50 nM and 500 nM (concentration for the table not stated). It is filed as cell-based.

A further assay addresses T3, IKZF2 (Homo sapiens, UniProt Q96SW2+Q9UKS7).
T3 construct: effects of the compounds of the present disclosure on the expression of target proteins in cells; endogenous in cells; host or cells: human PBMCs (Milecell Biotechnologies)
The assay is described as above. The format is cell-based. To be noted: Western blot, 24 hours of compound treatment, compounds tested at 50 nM and 500 nM (concentration for the table not stated).

The target of the next assay is T4, IKZF3 (Homo sapiens, UniProt Q96SW2+Q9UKT9).
T4 construct: effects of the compounds of the present disclosure on the expression of target proteins in cells; endogenous in cells; host or cells: human PBMCs (Milecell Biotechnologies)
T4 sequence (Q9UKT9 whole entry): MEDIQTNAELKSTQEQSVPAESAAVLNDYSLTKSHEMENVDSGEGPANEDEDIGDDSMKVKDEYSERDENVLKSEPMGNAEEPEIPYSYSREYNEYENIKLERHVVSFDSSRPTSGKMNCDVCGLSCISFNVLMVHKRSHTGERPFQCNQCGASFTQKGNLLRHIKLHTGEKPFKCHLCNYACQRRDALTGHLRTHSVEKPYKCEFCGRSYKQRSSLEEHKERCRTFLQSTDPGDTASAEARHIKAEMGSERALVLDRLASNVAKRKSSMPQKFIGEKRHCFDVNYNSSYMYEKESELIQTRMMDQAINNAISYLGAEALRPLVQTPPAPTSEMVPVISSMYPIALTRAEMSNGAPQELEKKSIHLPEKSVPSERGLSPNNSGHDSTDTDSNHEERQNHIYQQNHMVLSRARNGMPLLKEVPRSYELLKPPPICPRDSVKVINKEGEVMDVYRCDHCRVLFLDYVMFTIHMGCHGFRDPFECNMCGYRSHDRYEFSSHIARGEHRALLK
T4 sequence (Q96SW2 whole entry): as the sequence (Q96SW2 whole entry) above
T4 sequence (Q16531 whole entry partner): as the sequence (Q16531 whole entry partner) above
The description is as above. The format is cell-based. To be noted: Western blot, 24 hours of compound treatment, compounds tested at 50 nM and 500 nM (concentration for the table not stated).

For the next assay, the target named is T5, WEE1 (Homo sapiens, UniProt P30291+Q96SW2).
T5 construct: effects of the compounds of the present disclosure on the expression of target proteins in cells; endogenous in cells; host or cells: human PBMCs (Milecell Biotechnologies)
T5 sequence (P30291 whole entry): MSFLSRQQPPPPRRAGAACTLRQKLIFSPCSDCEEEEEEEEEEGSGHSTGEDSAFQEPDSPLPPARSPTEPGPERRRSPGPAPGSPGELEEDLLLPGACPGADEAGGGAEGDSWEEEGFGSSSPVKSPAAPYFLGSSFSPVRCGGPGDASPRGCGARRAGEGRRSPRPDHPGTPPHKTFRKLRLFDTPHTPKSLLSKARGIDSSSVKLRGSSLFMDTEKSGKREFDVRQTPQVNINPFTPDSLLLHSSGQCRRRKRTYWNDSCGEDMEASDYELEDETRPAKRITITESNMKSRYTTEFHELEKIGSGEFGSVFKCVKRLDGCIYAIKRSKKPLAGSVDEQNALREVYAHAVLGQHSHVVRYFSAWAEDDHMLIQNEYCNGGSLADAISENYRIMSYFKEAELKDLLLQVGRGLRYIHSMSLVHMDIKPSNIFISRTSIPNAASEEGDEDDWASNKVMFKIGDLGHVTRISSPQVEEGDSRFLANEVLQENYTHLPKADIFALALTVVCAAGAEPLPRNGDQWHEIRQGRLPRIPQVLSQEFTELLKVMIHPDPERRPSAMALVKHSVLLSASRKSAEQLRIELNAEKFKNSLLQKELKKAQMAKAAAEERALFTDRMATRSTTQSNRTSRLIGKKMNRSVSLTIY
T5 sequence (Q96SW2 whole entry): as the sequence (Q96SW2 whole entry) above
T5 sequence (Q16531 whole entry partner): as the sequence (Q16531 whole entry partner) above
The assay is described as above. The format is cell-based. To be noted: Western blot, 24 hours of compound treatment, compounds tested at 50 nM and 500 nM (concentration for the table not stated).

The next assay has as its system GSPT1. Described as above. It is filed as cell-based, Human. To be noted: Western blot, 24 hours of compound treatment, compounds tested at 50 nM and 500 nM (concentration for the table not stated).
Assay [1] has as its target T6, human Cereblon WT GST-tagged protein (Homo sapiens, UniProt Q96SW2).
T6 construct: purchased CISBIO 64BDCRBNPEH
The assay can be described thus: CRBN-binding affinity, HTRF (CEREBLON BINDING kit). A general note: Time-resolved FRET reads energy transfer from a long-lived donor to a nearby acceptor.

Assay [2] relates to Human multiple myeloma cell (MM.1S). The assay can be described thus: Tumor cell proliferation inhibition (CellTiter-Meiluncell luminescent cell viability assay). To be noted: Homo sapiens, MM1.S, 96 h, read-out: Inhibitory activity (IC50, nM) on tumor cell proliferation, MM.1S.
Assay [3] relates to Human multiple myeloma peripheral blood B lymphocyte cell (RPMI-8226). The description is as above. To be noted: RPMI-8226, 96 h, read-out: Inhibitory activity (IC50, nM) on tumor cell proliferation, RPMI-8226.
In assay [4] the test system is Human diffuse large B-cell lymphoma cell line: TMD8. Described as above. To be noted: TMD8, 96 h, read-out: Inhibitory activity (IC50, nM) on tumor cell proliferation, TMD8.
Experimental: (§1) The tumor cells used herein were cultured in a cell culture medium listed in table 2 at 37°C in an incubator with 5% CO2. Prior to experimentation, all cell lines used were correctly identified by STR profiling, and tested negative for mycoplasma contamination using a mycoplasma detection kit through routine screenings.
(§2) The IC50 values of the compounds of the present disclosure (including the compounds in Table 1 and Examples) were determined using the CellTiter-Meiluncell Luminescent Cell Viability Assay Kit from Dalian Meilun Biotech Co., Ltd. The detailed procedure is as follows: Tumor cells were seeded in 96-well cell culture plates at the densities specified in Table 3. On the following day, the test compounds of the present disclosure were subjected to serial dilution. The dilution can be performed according to one of the following two methods: • (1) The first dilution method: The test compounds of the present disclosure (including the compounds in Table 1 and Examples) were subjected to 5-fold serial dilutions starting from a highest concentration of 2000 µM, resulting in a total of 9 concentrations from high to low (2000, 400, 80, 16, 3.2, 0.64, 0.128, 0.0256, 0.00512 µM). Subsequently, 0.5 µL of the test compound dilution was transferred into the 96-well plate containing the cells, with each well containing 100 µL of cell culture medium. […] Into the 96-well plate, the diluted test compounds and corresponding detection reagents were added, resulting in final test compound concentrations of 500 nM and 10 nM, respectively. The experimental procedure is described below using the diluted 2 µM test compound as an example.
0.5 µL of the aforementioned diluted compound of the present disclosure (including the compounds in Table 1 and Examples) was added to the seeded cells in 100 µL of medium, yielding a final test compound concentration of 10 nM. […] The growth inhibition curves for the compounds of the present disclosure were plotted using Prism GraphPad software, and the IC50 values were calculated therefrom.
Assay [5] concerns Human breast cancer cell (MCF-7). The description is as above. To be noted: MCF7, 96 h, read-out: Inhibitory activity (IC50, nM) on tumor cell proliferation, MCF7.
Assay [6] deals with Human T lymphocytic leukemia cell line: Jurkat. The assay is described as above. Particulars: 96 h, read-out: Inhibitory activity (IC50, nM) on tumor cell proliferation, Jurkat.
Experimental: as §1, §2
(§3) 0.5 µL of the aforementioned diluted compound of the present disclosure (including the compounds in Table 1 and Examples) was added to the seeded cells in 100 µL of medium, yielding a final test compound concentration of 10 nM. After the cells were treated with the compounds of the present disclosure for a specified period, the cell viability assay reagent was added to the culture medium according to the kit's instructions to determine cell viability. […] All controls were treated using the same procedure as the compounds of the present disclosure. The growth inhibition curves for the compounds of the present disclosure were plotted using Prism GraphPad software, and the IC50 values were calculated therefrom.
The test system of assay [7] is Human non-small cell lung cancer cell line: NCI-H1975. Described as above. Particulars: NCI-H1975, 96 h, read-out: Inhibitory activity (IC50, nM) on tumor cell proliferation, H1975.
Experimental: as §1, §2, §3
In assay [8] the test system is Human mantle cell lymphoma cell line: JEKO-1. The description is as above. To be noted: JeKo-1, 96 h, read-out: Inhibitory activity (IC50, nM) on tumor cell proliferation, JEKO-1.
Experimental: as §1, §2, §3
For assay [9], the system named is Human gastric cancer cell line: MGC803. The description is as above. To be noted: MGC-803, read-out: Inhibitory activity (IC50, nM) on tumor cell proliferation, MGC803.
Experimental: as §2, §3
Setting [10] is: CRBN binding, HTRF, 3 hours at room temperature; read-out: HTRF IC50.

Where two headings read alike, the source gives them in different places.

These results are taken from patent publication EP4745135A1 (Gluetacs Therapeutics (Shanghai) Co., Ltd., priority 2023, dated 2025).

T1 sequence (P48729 whole entry): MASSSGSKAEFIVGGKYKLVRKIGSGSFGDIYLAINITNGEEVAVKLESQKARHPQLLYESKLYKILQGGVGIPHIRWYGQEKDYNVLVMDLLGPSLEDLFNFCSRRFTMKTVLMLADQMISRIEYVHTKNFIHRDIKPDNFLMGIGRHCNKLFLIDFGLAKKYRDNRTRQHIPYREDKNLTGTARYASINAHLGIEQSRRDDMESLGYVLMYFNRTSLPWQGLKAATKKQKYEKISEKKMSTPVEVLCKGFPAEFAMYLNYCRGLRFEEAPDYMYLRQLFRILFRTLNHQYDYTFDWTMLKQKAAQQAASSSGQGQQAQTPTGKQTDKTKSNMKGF
T1 sequence (Q96SW2 whole entry): as the sequence (Q96SW2 whole entry) above
T1 sequence (Q16531 whole entry partner): as the sequence (Q16531 whole entry partner) above
T6 sequence (Q96SW2 whole entry): as the sequence (Q96SW2 whole entry) above
T3 sequence (Q9UKS7 whole entry): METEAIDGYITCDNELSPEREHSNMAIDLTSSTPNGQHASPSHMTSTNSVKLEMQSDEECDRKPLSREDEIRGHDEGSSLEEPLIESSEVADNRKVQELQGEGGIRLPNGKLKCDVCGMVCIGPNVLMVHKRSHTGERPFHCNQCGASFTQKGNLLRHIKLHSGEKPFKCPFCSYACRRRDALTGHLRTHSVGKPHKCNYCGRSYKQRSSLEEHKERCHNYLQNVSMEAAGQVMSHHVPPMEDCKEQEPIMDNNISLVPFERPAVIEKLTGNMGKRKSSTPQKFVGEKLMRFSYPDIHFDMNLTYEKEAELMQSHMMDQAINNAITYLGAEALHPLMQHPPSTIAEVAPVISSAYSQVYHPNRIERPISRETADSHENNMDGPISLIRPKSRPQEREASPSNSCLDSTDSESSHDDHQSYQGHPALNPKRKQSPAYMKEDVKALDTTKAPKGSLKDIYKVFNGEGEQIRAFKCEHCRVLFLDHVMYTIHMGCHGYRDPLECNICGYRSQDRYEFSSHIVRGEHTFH
T3 sequence (Q96SW2 whole entry): as the sequence (Q96SW2 whole entry) above
T3 sequence (Q16531 whole entry partner): as the sequence (Q16531 whole entry partner) above

`O=C1CCC(N2Cc3cc(CN4CCC(c5c[nH]c6cc(F)ccc56)CC4)ccc3C2=S)C(=O)N1` (stereo not shown) [GT-05243, 3-(5-((4-(6-fluoro-1H-indol-3-yl)piperidin-1-yl)methyl)-1-thioxoisoindolin-2-yl)piperidine-2,6-dione]: the “CK1α substrate protein remaining %” value on CK1α is reported as “B (80%< substrate protein remaining %≤ 100%)”. In addition, the “IKZF 1 substrate protein remaining %” value on IKZF1 was “B (80%< substrate protein remaining %≤ 100%)”. Moreover, on IKZF2, the “IKZF2 substrate protein remaining %” value is listed as “A (0% ≤ substrate protein remaining % ≤ 80%)”. Further, the “IKZF3 substrate protein remaining %” value on IKZF3 is “A (0% ≤ substrate protein remaining % ≤ 80%)”. For the same compound, the “Wee1 substrate protein remaining %” value on WEE1 is given as “A (0% ≤ substrate protein remaining % ≤ 80%)”. Moreover, the “GSPT1 substrate protein remaining %” value in the assay on GSPT1 is listed as “A (0% ≤ substrate protein remaining % ≤ 80%)”. Moreover, the IC50 in assay [1] (setting [10]) was less than 100 nM; in assay [2], less than 5 nM; in [3] it was 10 to 50 nM; in assay [4], 100 to 500 nM.

On to `O=C1CCC(N2Cc3cc(CN4CC=C(c5cccc(Cl)c5Cl)CC4)ccc3C2=S)C(=O)N1` (stereo not shown) [GT-05149, 3-(5-((4-(2,3-dichlorophenyl)-3,6-dihydropyridin-1(2H)-yl)methyl)-1-thioxoisoindolin-2-yl)piperidine-2,6-dione], for which, at CK1α, the “CK1α substrate protein remaining %” value is “B (80%< substrate protein remaining %≤ 100%)”. The “IKZF 1 substrate protein remaining %” value at IKZF1 is reported as “A (0% ≤ substrate protein remaining % ≤ 80%)”. In addition, at IKZF2, the “IKZF2 substrate protein remaining %” value is on record as “A (0% ≤ substrate protein remaining % ≤ 80%)”. The “IKZF3 substrate protein remaining %” value on IKZF3 was “A (0% ≤ substrate protein remaining % ≤ 80%)”. Besides, the “Wee1 substrate protein remaining %” value on WEE1 was “A (0% ≤ substrate protein remaining % ≤ 80%)”. Also, the “GSPT1 substrate protein remaining %” value in the assay on GSPT1 is “A (0% ≤ substrate protein remaining % ≤ 80%)”. The IC50 in assay [1] (setting [10]) was 100 to 500 nM; in [2] it was less than 5 nM; in [5], 10 to 50 nM; in assay [6] it was 5 to 10 nM; in assay [7] it was 10 to 50 nM; in [8], 5 to 10 nM. Besides, the IC50 in assay [9] lay in the range of 10 to 50 nM.

Turning to `O=C1CCC(N2Cc3cc(CN4CCC(N(c5ccccc5)c5ccccc5)CC4)ccc3C2=S)C(=O)N1` (stereo not shown), the “CK1α substrate protein remaining %” value on CK1α is “B (80%< substrate protein remaining %≤ 100%)”. Further, the “IKZF 1 substrate protein remaining %” value at IKZF1 was “A (0% ≤ substrate protein remaining % ≤ 80%)”. The “IKZF2 substrate protein remaining %” value at IKZF2 is listed as “A (0% ≤ substrate protein remaining % ≤ 80%)”. On IKZF3, the “IKZF3 substrate protein remaining %” value is on record as “A (0% ≤ substrate protein remaining % ≤ 80%)”. In addition, the “Wee1 substrate protein remaining %” value on WEE1 was “A (0% ≤ substrate protein remaining % ≤ 80%)”. Moreover, the “GSPT1 substrate protein remaining %” value in the assay with GSPT1 is “A (0% ≤ substrate protein remaining % ≤ 80%)”. The IC50 was 100 to 500 nM in [1] (read-out: HTRF IC50; CRBN binding, HTRF, 3 hours at room temperature); less than 5 nM in assay [2]; 10 to 50 nM in assay [5]; less than 5 nM in [6]; 5 to 10 nM in assay [7]; less than 5 nM in assay [8]. Also, the IC50 in assay [9] is 5 to 10 nM.

In the case of `Cc1cscc1C1=CCN(Cc2ccc3c(c2)CN(C2CCC(=O)NC2=O)C3=S)CC1` (stereo not shown) [GT-05145, 3-(5-((4-(4-methylthiophen-3-yl)-3,6-dihydropyridin-1(2H)-yl)methyl)-1-thioxoisoindolin-2-yl)piperidine-2,6-dione], the “CK1α substrate protein remaining %” value at CK1α was “A (0% ≤ substrate protein remaining % ≤ 80%)”. Moreover, the “IKZF 1 substrate protein remaining %” value at IKZF1 is on record as “A (0% ≤ substrate protein remaining % ≤ 80%)”. In addition, the “IKZF2 substrate protein remaining %” value on IKZF2 is “A (0% ≤ substrate protein remaining % ≤ 80%)”. Also, the “IKZF3 substrate protein remaining %” value on IKZF3 is “A (0% ≤ substrate protein remaining % ≤ 80%)”. Besides, the “Wee1 substrate protein remaining %” value on WEE1 is recorded as “A (0% ≤ substrate protein remaining % ≤ 80%)”. In addition, in the assay on GSPT1, the “GSPT1 substrate protein remaining %” value is “A (0% ≤ substrate protein remaining % ≤ 80%)”. Moreover, the IC50 was less than 100 nM in assay [1] (setting [10]); less than 5 nM in assay [2]; 10 to 50 nM in assay [5]; less than 5 nM in [6]; 5 to 10 nM in assay [7]; less than 5 nM in assay [8]. In assay [9], the IC50 was in the range of 10 to 50 nM.

Consider `O=C1CCC(N2Cc3cc(CN4CCN(c5cccc6sccc56)CC4)ccc3C2=S)C(=O)N1` (stereo not shown) [GT-05088, 3-(5-((4-(benzo[b]thiophen-4-yl)piperazin-1-yl)methyl)-1-thioxoisoindolin-2-yl)piperidine-2,6-dione], for which the “CK1α substrate protein remaining %” value on CK1α was “B (80%< substrate protein remaining %≤ 100%)”. Further, the “IKZF 1 substrate protein remaining %” value on IKZF1 is recorded as “A (0% ≤ substrate protein remaining % ≤ 80%)”. Further, the “IKZF2 substrate protein remaining %” value at IKZF2 is “A (0% ≤ substrate protein remaining % ≤ 80%)”. In addition, the “IKZF3 substrate protein remaining %” value at IKZF3 is “A (0% ≤ substrate protein remaining % ≤ 80%)”. Moreover, the “Wee1 substrate protein remaining %” value at WEE1 is on record as “A (0% ≤ substrate protein remaining % ≤ 80%)”. Moreover, in the assay with GSPT1, the “GSPT1 substrate protein remaining %” value is given as “A (0% ≤ substrate protein remaining % ≤ 80%)”. In addition, the IC50 in assay [1] (setting [10]) is 100 to 500 nM; in [2], 10 to 50 nM; in assay [5], 100 to 500 nM; in assay [6], 50 to 100 nM; in assay [7], 50 to 100 nM; in [8], 10 to 50 nM. Besides, in assay [9], the IC50 lay within 100 to 500 nM.

Regarding `Cc1ccc(Sc2ccccc2N2CCN(Cc3ccc4c(c3)CN(C3CCC(=O)NC3=O)C4=S)CC2)c(C)c1` (stereo not shown) [GT-05092, 3-(5-((4-(2-((2,4-dimethylphenyl)thio)phenyl)piperazin-1-yl)methyl)-1-thioxoisoindolin-2-yl)piperidine-2,6-dione], the “CK1α substrate protein remaining %” value at CK1α is “B (80%< substrate protein remaining %≤ 100%)”. Also, the “IKZF 1 substrate protein remaining %” value at IKZF1 is recorded as “A (0% ≤ substrate protein remaining % ≤ 80%)”. In addition, at IKZF2, the “IKZF2 substrate protein remaining %” value is reported as “A (0% ≤ substrate protein remaining % ≤ 80%)”. The “IKZF3 substrate protein remaining %” value at IKZF3 is on record as “A (0% ≤ substrate protein remaining % ≤ 80%)”. On WEE1, the “Wee1 substrate protein remaining %” value is “A (0% ≤ substrate protein remaining % ≤ 80%)”. Moreover, the “GSPT1 substrate protein remaining %” value in the assay with GSPT1 was “A (0% ≤ substrate protein remaining % ≤ 80%)”. Also, the IC50 in assay [1] (setting [10]) fell in the range of 500 to 1000 nM; in assay [2] it was 10 to 50 nM; in assay [5], 100 to 500 nM; in assay [6], 50 to 100 nM; in [7], 50 to 100 nM; in assay [8], 10 to 50 nM. In addition, the IC50 in assay [9] lay in the range of 100 to 500 nM.

Take `Cc1ccc(C2=CCN(Cc3ccc4c(c3)CN(C3CCC(=O)NC3=O)C4=S)CC2)s1` (stereo not shown) [GT-05111, 3-(5-((4-(5-methylthiophen-2-yl)-3,6-dihydropyridin-1(2H)-yl)methyl)-1-thioxoisoindolin-2-yl)piperidine-2,6-dione]: the “CK1α substrate protein remaining %” value at CK1α is “A (0% ≤ substrate protein remaining % ≤ 80%)”. Moreover, the “IKZF 1 substrate protein remaining %” value at IKZF1 is on record as “A (0% ≤ substrate protein remaining % ≤ 80%)”. At IKZF2, the “IKZF2 substrate protein remaining %” value was “A (0% ≤ substrate protein remaining % ≤ 80%)”. Further, at IKZF3, the “IKZF3 substrate protein remaining %” value is “A (0% ≤ substrate protein remaining % ≤ 80%)”. The “Wee1 substrate protein remaining %” value on WEE1 is “A (0% ≤ substrate protein remaining % ≤ 80%)”. Moreover, in the assay with GSPT1, the “GSPT1 substrate protein remaining %” value is “A (0% ≤ substrate protein remaining % ≤ 80%)”. The IC50 is 100 to 500 nM in assay [1] (setting [10]); 10 to 50 nM in [2]; 100 to 500 nM in [5]; 50 to 100 nM in [6]; 50 to 100 nM in assay [7]; 50 to 100 nM in [8]. In assay [9], the IC50 lay in the range of 100 to 500 nM.
